Assay results published in ChEMBL document CHEMBL1141055, “Discovery of novel conformationally restricted diazocan peptidomimetics as inhibitors of interleukin-1beta synthesis” (Bioorg Med Chem Lett, 2005).

Tests used:
THP-1 = test: Inhibition of 1 ug/mL LPS-induced IL1-beta production in human monocytic cells after 4 hrs; type: functional, cell-based; details: THP-1, 4 h
Caspase-8 = Caspase-8 (Homo sapiens, UniProt Q14790); test: Inhibition of caspase 8 using fluorogenic substrate and BMG Fluostar plate reader for 30 min at 37 degree C
Caspase-1 = target: T1, Caspase-1 (Homo sapiens, UniProt P29466); test: Inhibition of caspase-1 using fluorogenic substrate and BMG Fluostar plate reader for 30 min at 37 degree C
T1 sequence (P29466 whole entry): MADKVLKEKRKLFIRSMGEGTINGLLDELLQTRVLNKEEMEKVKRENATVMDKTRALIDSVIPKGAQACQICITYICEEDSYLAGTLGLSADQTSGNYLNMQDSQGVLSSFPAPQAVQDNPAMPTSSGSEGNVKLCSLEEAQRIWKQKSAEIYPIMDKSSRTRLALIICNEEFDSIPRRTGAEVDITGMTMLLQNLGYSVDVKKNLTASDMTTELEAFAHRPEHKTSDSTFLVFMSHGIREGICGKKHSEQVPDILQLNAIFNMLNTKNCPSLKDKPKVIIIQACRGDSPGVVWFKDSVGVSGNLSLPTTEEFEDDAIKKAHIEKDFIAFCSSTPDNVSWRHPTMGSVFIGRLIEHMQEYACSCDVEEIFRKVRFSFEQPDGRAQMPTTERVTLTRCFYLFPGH

Caspase-3 = target: T2, Caspase-3 (Homo sapiens, UniProt P42574); test: Inhibition of caspase 3 using fluorogenic substrate and BMG Fluostar plate reader for 30 min at 37 degree C
T2 sequence (P42574 whole entry): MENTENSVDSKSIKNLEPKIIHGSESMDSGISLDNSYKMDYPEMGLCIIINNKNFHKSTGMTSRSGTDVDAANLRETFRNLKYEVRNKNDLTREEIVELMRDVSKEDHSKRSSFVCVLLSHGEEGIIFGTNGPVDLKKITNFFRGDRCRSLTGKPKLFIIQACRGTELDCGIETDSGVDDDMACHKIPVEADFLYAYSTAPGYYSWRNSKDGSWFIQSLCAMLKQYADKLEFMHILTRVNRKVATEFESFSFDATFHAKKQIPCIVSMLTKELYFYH

Chain of Caspase-8 (Q14790 217-374 limits assumed): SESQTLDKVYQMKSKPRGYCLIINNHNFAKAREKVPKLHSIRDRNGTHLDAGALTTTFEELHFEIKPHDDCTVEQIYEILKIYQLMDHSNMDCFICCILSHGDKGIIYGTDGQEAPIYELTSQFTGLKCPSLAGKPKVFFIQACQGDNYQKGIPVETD
Chain of Caspase-8 (Q14790 385-479 limits assumed): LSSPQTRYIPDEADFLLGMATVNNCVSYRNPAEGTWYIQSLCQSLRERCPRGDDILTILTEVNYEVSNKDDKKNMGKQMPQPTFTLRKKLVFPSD

Compound	IC50 (THP-1)	IC50 (Caspase-8)	IC50 (Caspase-1)	IC50 (Caspase-3)
O=CN1CCCN(CC(=O)N[C@H]2CC(=O)OC2O)C(=O)[C@@H](NC(=O)c2ccc3ccccc3c2)C1 (stereo partly specified)	219 nM			
O=C(CN1CCCN(C(=O)c2ccccc2)C[C@H](NC(=O)c2nccc3ccccc23)C1=O)N[C@H]1CC(=O)OC1O (stereo partly specified)	280 nM	> 10 µM	30 nM	> 10 µM
O=C(CN1CCCN(C(=O)c2ccccc2)C[C@H](NC(=O)c2ccccc2)C1=O)N[C@H]1CC(=O)OC1O (stereo partly specified)	1020 nM			
O=C(CN1CCCN(C(=O)N2CCNCC2)C[C@H](NC(=O)c2ccc3ccccc3c2)C1=O)N[C@H]1CC(=O)OC1O (stereo partly specified)	285 nM	> 10 µM	24 nM	> 10 µM
O=C(CN1CCCN(C(=O)c2ccccc2)C[C@H](NC(=O)c2cc3ccccc3s2)C1=O)N[C@H]1CC(=O)OC1O (stereo partly specified)	560 nM			
Cc1ccc(Cl)cc1C(=O)N1CCCN(CC(=O)N[C@H]2CC(=O)OC2O)C(=O)[C@@H](NC(=O)c2ccc3ccccc3c2)C1 (stereo partly specified)	> 2500 nM			
CC(=O)N1CCCN(CC(=O)N[C@H]2CC(=O)OC2O)C(=O)[C@@H](NC(=O)c2ccc3ccccc3c2)C1 (stereo partly specified)	216 nM			
O=C(CN1CCCN(C(=O)c2ccccc2)C[C@H](NC(=O)c2cccc(C(F)(F)F)c2)C1=O)N[C@H]1CC(=O)OC1O (stereo partly specified)	1020 nM			
O=C(CN1CCCN(C(=O)N2CCOCC2)C[C@H](NC(=O)c2ccc3ccccc3c2)C1=O)N[C@H]1CC(=O)OC1O (stereo partly specified)	224 nM	> 10 µM	44 nM	> 10 µM
O=C(CN1CCCN(C(=O)c2cccc(F)c2)C[C@H](NC(=O)c2ccc3ccccc3c2)C1=O)N[C@H]1CC(=O)OC1O (stereo partly specified)	297 nM	> 10 µM	22 nM	> 10 µM
CCO[C@@H]1OC(=O)C[C@@H]1NC(=O)[C@@H]1CCCN2C(=O)CC[C@H](NC(=O)c3nccc4ccccc34)C(=O)N12 [PRALNACASAN]	120 nM		2 nM	
O=C(CN1CCCN(C(=O)Cc2ccccc2)C[C@H](NC(=O)c2ccc3ccccc3c2)C1=O)N[C@H]1CC(=O)OC1O (stereo partly specified)	808 nM			
O=C(CN1CCCN(C(=O)c2cccc(C(F)(F)F)c2)C[C@H](NC(=O)c2ccc3ccccc3c2)C1=O)N[C@H]1CC(=O)OC1O (stereo partly specified)	1740 nM			
O=C(CN1CCCN(C(=O)C2CCCCC2)C[C@H](NC(=O)c2ccc3ccccc3c2)C1=O)N[C@H]1CC(=O)OC1O (stereo partly specified)	577 nM			
O=C(CN1CCCN(C(=O)c2ccccc2)C[C@H](NC(=O)c2ccc3ccccc3c2)C1=O)N[C@H]1CC(=O)OC1O (stereo partly specified)	205 nM	> 10 µM	19 nM	> 10 µM
Cc1ccc(Cl)cc1C(=O)N[C@H]1CN(C(=O)c2ccccc2)CCCN(CC(=O)N[C@H]2CC(=O)OC2O)C1=O (stereo partly specified)	298 nM			
O=C(CN1CCCN(C(=O)c2ccccc2C(F)(F)F)C[C@H](NC(=O)c2ccc3ccccc3c2)C1=O)N[C@H]1CC(=O)OC1O (stereo partly specified)	1520 nM			
COc1cccc(C(=O)N2CCCN(CC(=O)N[C@H]3CC(=O)OC3O)C(=O)[C@@H](NC(=O)c3ccc4ccccc4c3)C2)c1 (stereo partly specified)	229 nM	> 10 µM	15 nM	> 10 µM
COc1ccccc1C(=O)N1CCCN(CC(=O)N[C@H]2CC(=O)OC2O)C(=O)[C@@H](NC(=O)c2ccc3ccccc3c2)C1 (stereo partly specified)	246 nM	> 10 µM	38 nM	> 10 µM
